Measurements published in patent US7642229B2, “Pharmaceutical composition and a product which includes a substituted acryloyl distamycin derivative, an antimicrotubule agent and/or an antimetabolite” (Nerviano Medical Sciences S.r.l., priority 2000, dated 2010).

Test system: disseminated L1210 murine leukemia
Conditions: for Tox (number of toxic deaths/number of mice) / ILS % (increase in life span: [(median survival time of treated mice/median survival time of controls) × 100] − 100): L1210 cells 10^5/mouse iv on day 0, PNU 166196 iv + 1.6, 0.78 mg/kg/day; for Tox (number of toxic deaths/number of mice): gemcitabine iv + 1, 15 mg/kg/day; for ILS % (increase in life span: [(median survival time of treated mice/median survival time of controls) × 100] − 100): gemcitabine iv + 1, 15 mg/kg/day (2 h after PNU 166196 administration); for ILS % values: text: gemcitabine 15 mg/kg day +1 after tumor injection, PNU 166196 0.7 mg/kg days +1,6, combination at the same doses and schedule

SMILES | Tox (number of toxic deaths/number of mice) | ILS % (increase in life span: [(median survival time of treated mice/median survival time of controls) × 100] − 100) [%] | ILS % values [%] | toxicity (text: gemcitabine alone 15 mg/kg day +1, PNU 166196 alone 0.7 mg/kg days +1,6)
Nc1ccn([C@@H]2O[C@H](CO)[C@@H](O)C2(F)F)c(=O)n1 [Gemcitabine, gemcitabine, reference compound] | 0/10 | 50 | 50 | 
C=C(Br)C(=O)Nc1cc(C(=O)Nc2cc(C(=O)Nc3cc(C(=O)Nc4cc(C(=O)NCCNC(=N)N)n(C)c4)n(C)c3)n(C)c2)n(C)c1.Cl [PNU 166196, N-(5-{[(5-{[(5-{[(2-{[amino(imino)methyl]amino}ethyl)amino]carbonyl}-1-methyl-1H-pyrrol-3-yl)amino]carbonyl}-1-methyl-1H-pyrrol-3-yl)amino]carbonyl}-1-methyl-1H-pyrrol-3-yl)-4-[(2-bromoacryloyl)amino]-1-methyl-1H-pyrrole-2-carboxamide hydrochloride] | 0/10 | 58 | 58 | without toxicity
